In one experiment the test system is WT.c cell line. Description: Cell migration assay, response to HGF. It is filed as cell-based, mouse. Particulars: HGF 40 ng/ml, 18 hours, WT.c cells. The source says: (§1) Primary epithelial cells, designated as K0.1, K0.2, K0.3 and K0.4, were isolated from PyMT.epiVEGF−/− tumors. Primary epithelial cells, designated as WT. 1, WT.2, WT.3, WT.4 and WT.5, were isolated from in PyMT.epiVEGF+/+ tumors. WT.c is epithelial cells from a cell line created from PyMT.VEGF+/+.loxP tumor. KO.c is epithelial cells from a cell line created from PyMT.VEGF+/+.loxP tumors wherein VEGF was knocked out by Adenovirus expressing Cre-recombinase (Adeno-Cre) infection in vitro. Epithelial-specific Cre-loxP recombination was confirmed through immunocytochemistry with anti-Cre recombinase antibody. VEGF expression level was not detectable in Ko.c cell lines by ELISA.
(§2) Migration assays were performed using BD Falcon™ FluoroBlok™ 24-Multiwell Insert System, 8 um pore size (BD Biosciences, Bedford, Mass.). The plates were coated with 5 ug/ml Fibronectin (Sigma) for 2 hours at 37° C. Cells in 300 μl assay medium (0.5% FBS, DMEM/F12) were added to the upper chamber. HGF 40 ng/ml in 750 ul assay medium was added to the lower chamber, and cells were incubated at 37° C. for 18 hours. Cells on the lower surface were fixed in MeOH and stained with YO-PRO-1 (Molecular Probes, Eugene, Oreg.). Images were acquired and analyzed using the ImageXpress Micro platform (MDS Analytical; Sunnyvale, Calif.). The Count Nuclei application in Metamorph was used to identify and count migrated cells.

Another experiment has as its system KO.c cell line. Description: Cell migration assay, response to HGF. In kind it is cell-based, mouse. Particulars: HGF 40 ng/ml, 18 hours, KO.c cells.
Text: as §1, §2

Experiment [1] relates to primary epithelial cells from PyMT.epiVEGF+/+ tumors. The experiment can be described thus: Cell migration assay, response to HGF. In kind it is cell-based, mouse. Particulars: HGF 40 ng/ml, 18 hours, primary tumors from PyMT.epiVEGF+/+ mice.
Text: as §1, §2

The test system of experiment [2] is primary epithelial cells from PyMT.epiVEGF−/− tumors. The experiment can be described thus: Cell migration assay, response to HGF. Particulars: HGF 40 ng/ml, 18 hours, primary tumors from PyMT.epiVEGF−/− mice. It is filed as cell-based, mouse.
Text: as §1, §2

In another experiment the test system is xenograft models. The conditions noted are these: most xenograft models tested; cited from earlier work.

On to “HGF: hepatocyte growth factor, added at 40 ng/ml to the lower chamber in the migration assay”, for which the figures for the “fold increase in migration with HGF treatment” value in the experiment with WT.c cell line and with KO.c cell line were 1.5 fold and 2.3 fold, respectively. In addition, the “average increase in migratory response to HGF” value came out at 1.8 fold in experiment [1] and 2.5 fold in experiment [2].
Turning to “bevacizumab: humanized anti-VEGF monoclonal antibody”, in the experiment on xenograft models, the tumor angiogenesis result is reported as “reduced” and the tumor growth result is reported as “significantly inhibited”.

These data come from patent US20100055099A1, “Diagnostics and Treatments for VEGF-Independent Tumors” (priority 2008, published 2010).
